Reference: publication PMC8921065, “Combination of terbium-161 with somatostatin receptor antagonists—a potential paradigm shift for the treatment of neuroendocrine neoplasms” (European Journal of Nuclear Medicine and Molecular Imaging, 2021)

Test: in vivo
Conditions: mouse, iv, 0.2 nmol/mouse, total radioactivity

Measured: tissue uptake at 24 h

C[C@@H](O)[C@@H]1NC(=O)[C@H](CCCCN)NC(=O)[C@@H](Cc2ccc(NC(N)=O)cc2)NC(=O)[C@H](Cc2ccc(O)cc2)NC(=O)[C@H](NC(=O)[C@H](Cc2ccc(Cl)cc2)NC(=O)CN2CCN(CC(=O)O)CCN(CC(=O)O)CCN(CC(=O)O)CC2)CSSC[C@@H](C(=O)N[C@H](Cc2ccc(O)cc2)C(N)=O)NC1=O [metal not drawn]
≤ 0.1 %ID/g: blood | heart | muscle
